Measured values reported in patent publication US20260272897A1 (Bayer Aktiengesellschaft, priority 2024, published 2026).
Where two headings read alike, the source gives them in different places.

How the values were obtained:
[1] = test system: patients with heart failure and a left ventricular ejection fraction ≥40%; type: in vivo
[2] = in vivo; cited from earlier work

Structure (SMILES): CCOc1ncc(C)c2c1[C@H](c1ccc(C#N)cc1OC)C(C(N)=O)=C(C)N2 [finerenone, (4S)-4-(4-cyano-2-methoxyphenyl)-5-ethoxy-2,8-dimethyl-1,4-dihydro-1,6-naphthyridine-3-carboxamide]
- Total worsening HF events: Event rate per 100 PY ([1]; bilirubin Tertile 2 0.5-0.6 mg/dL): 9.7 per 100 PY
- Total worsening HF events: Event rate per 100 PY ([1]; bilirubin Tertile 3 ≥0.7 mg/dL): 12.6 per 100 PY
- primary events (total worsening heart failure events and cardiovascular death), number of events ([1]; finerenone group, median 32 months): 1,083
- active metabolites [2]: no active metabolites
